In this test the target is T1, purified human HDAC6 (Homo sapiens, UniProt Q9UBN7).
T1 construct: purchased BPS Bioscience 5006
T1 sequence (Q9UBN7 1-1215): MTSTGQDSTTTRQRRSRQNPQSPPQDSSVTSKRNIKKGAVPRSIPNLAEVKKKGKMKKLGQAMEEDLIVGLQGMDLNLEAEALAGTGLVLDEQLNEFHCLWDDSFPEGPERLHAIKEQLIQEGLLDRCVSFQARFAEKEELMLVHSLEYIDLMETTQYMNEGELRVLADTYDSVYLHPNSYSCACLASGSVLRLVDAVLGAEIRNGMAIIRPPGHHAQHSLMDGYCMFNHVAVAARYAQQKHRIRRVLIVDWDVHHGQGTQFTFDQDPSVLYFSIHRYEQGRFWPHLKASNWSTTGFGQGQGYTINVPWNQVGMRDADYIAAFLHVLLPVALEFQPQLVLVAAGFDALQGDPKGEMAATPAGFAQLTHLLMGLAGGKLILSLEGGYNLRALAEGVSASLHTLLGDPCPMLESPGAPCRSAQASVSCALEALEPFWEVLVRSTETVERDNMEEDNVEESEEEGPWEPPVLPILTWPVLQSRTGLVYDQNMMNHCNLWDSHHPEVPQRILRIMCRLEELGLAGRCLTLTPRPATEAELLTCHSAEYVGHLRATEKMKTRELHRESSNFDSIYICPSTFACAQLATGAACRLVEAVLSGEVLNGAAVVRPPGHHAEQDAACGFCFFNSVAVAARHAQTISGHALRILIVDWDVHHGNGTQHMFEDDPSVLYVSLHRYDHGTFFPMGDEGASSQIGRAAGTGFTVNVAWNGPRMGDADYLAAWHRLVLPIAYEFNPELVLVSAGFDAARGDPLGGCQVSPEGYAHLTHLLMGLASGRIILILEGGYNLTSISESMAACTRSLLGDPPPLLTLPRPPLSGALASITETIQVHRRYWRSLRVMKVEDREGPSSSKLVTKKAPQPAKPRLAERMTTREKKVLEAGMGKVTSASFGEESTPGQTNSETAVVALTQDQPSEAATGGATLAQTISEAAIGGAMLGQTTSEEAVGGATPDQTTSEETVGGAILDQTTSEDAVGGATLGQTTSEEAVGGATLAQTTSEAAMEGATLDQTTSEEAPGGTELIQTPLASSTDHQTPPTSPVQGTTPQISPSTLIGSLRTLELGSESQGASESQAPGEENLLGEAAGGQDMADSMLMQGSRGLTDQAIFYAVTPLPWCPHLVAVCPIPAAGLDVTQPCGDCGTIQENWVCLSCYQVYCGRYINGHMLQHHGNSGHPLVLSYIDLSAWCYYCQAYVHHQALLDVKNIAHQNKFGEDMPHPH
Kind of test: HDAC6 Enzyme Assay. Type of test: biochemical. The settings on record: substrate Ac-Arg-Gly-Lys(Ac)-AMC peptide, 1 hour at 30° C. As to the method: To measure the inhibition of HDAC6 activity, purified human HDAC6 (BPS Bioscience; Cat. No. 5006) is incubated with substrate Ac-Arg-Gly-Lys(Ac)-AMC peptide (Bachem Biosciences; Cat. No. I-1925) for 1 hour at 30° C. in the presence of test compounds or vehicle DMSO control. The reaction is stopped with the HDAC inhibitor trichostatin A (Sigma; Cat. No. T8552) and the amount of Arg-Gly-Lys-AMC generated is quantitated by digestion with trypsin (Sigma; Cat. No. T1426) and subsequent measurement of the amount of AMC released using a fluorescent plate reader (Pherastar; BMG Technologies) set at Ex 340 nm and Em 460 nm. Concentration response curves are generated by calculating the fluorescence increase in test compound-treated samples relative to DMSO-treated controls, and enzyme inhibition (IC50) values are determined from those curves.

pIC50: −log10 of the molar value. A value given as a limit tells only on which side of the number the result lay.

Regarding `CC(NC(=O)c1ccc(OCc2ccccc2)cc1)c1ncc(C(=O)NO)s1` (stereo not drawn) [Compound I-49, 2-(1-{[4-(benzyloxy)benzoyl]amino}ethyl)-N-hydroxy-1,3-thiazole-5-carboxamide], the negative-log IC50 (pIC50) is above 7.00. Then `CC(NC(=O)c1cc2cc(Cl)ccc2o1)c1ncc(C(=O)NO)s1` (stereo not drawn) [Compound I-50, 2-(1-{[(5-chloro-1-benzofuran-2-yl)carbonyl]amino}ethyl)-N-hydroxy-1,3-thiazole-5-carboxamide], with above 7.00; and `CC(NC(=O)c1cc2ccccc2n1C)c1ncc(C(=O)NO)s1` (stereo not drawn) [Compound I-51, N-(1-{5-[(hydroxyamino)carbonyl]-1,3-thiazol-2-yl}ethyl)-1-methyl-1H-indole-2-carboxamide], with above 7.00.

`CC(NC(=O)c1cccn1C)c1ncc(C(=O)NO)s1` (stereo not drawn) [Compound I-52, N-hydroxy-2-(1-{[(1-methyl-1H-pyrrol-2-yl)carbonyl]amino}ethyl)-1,3-thiazole-5-carboxamide] showed a negative logarithm of the IC50 (pIC50) of 6.30 to 7.00. Then `CC(NC(=O)C(C)(C)C)c1ncc(C(=O)NO)s1` (stereo not drawn) [Compound I-53, 2-{1-[(2,2-dimethylpropanoyl)amino]ethyl}-N-hydroxy-1,3-thiazole-5-carboxamide], with below 6.30; and `CC(NC(=O)c1cc2ccccc2s1)c1ncc(C(=O)NO)s1` (stereo not drawn) [Compound I-54, 2-{1-[(1-benzothien-2-ylcarbonyl)amino]ethyl}-N-hydroxy-1,3-thiazole-5-carboxamide], with above 7.00; and `CC(NC(=O)C1(c2ccc(Cl)cc2)CCC1)c1ncc(C(=O)NO)s1` (stereo not drawn) [Compound I-55, 2-[1-({[1-(4-chlorophenyl)cyclobutyl]carbonyl}amino)ethyl]-N-hydroxy-1,3-thiazole-5-carboxamide], with below 6.30. The molecule `Cc1nc(-c2ccccn2)sc1C(=O)N[C@H](C)c1cc(C(=O)NO)cn1C` [Compound I-156, N-((1R)-1-{4-[(hydroxyamino)carbonyl]-1-methyl-1H-pyrrol-2-yl}ethyl)-4-methyl-2-pyridin-2-yl-1,3-thiazole-5-carboxamide] had a pIC50 below 6.30. The value for `C[C@@H](NC(=O)C1(C)CCCCC1)c1cc(C(=O)NO)on1` [Compound I-157, N-hydroxy-3-((1R)-1-{[(1-methylcyclohexyl)carbonyl]amino}ethyl)isoxazole-5-carboxamide] was below 6.30; that for `C[C@@H](NC(=O)c1ccc(-c2ccccc2)cc1)c1cc(C(=O)NO)on1` [Compound I-158, 3-{(1R)-1-[(biphenyl-4-ylcarbonyl)amino]ethyl}-N-hydroxyisoxazole-5-carboxamide] was below 6.30. Molecule `C[C@H](NC(=O)c1cc2ccccc2o1)c1ncc(C(=O)NO)s1` [Compound I-159, 2-{(1S)-1-[(1-benzofuran-2-ylcarbonyl)amino]ethyl}-N-hydroxy-1,3-thiazole-5-carboxamide] showed a pIC50 above 7.00.

As for `C[C@H](NC(=O)c1cccn1C)c1ncc(C(=O)NO)s1` [Compound I-160, N-hydroxy-2-((1S)-1-{[(1-methyl-1H-pyrrol-2-yl)carbonyl]amino}ethyl)-1,3-thiazole-5-carboxamide], the pIC50 was 6.30 to 7.00.

Molecule `C[C@H](NC(=O)c1ccc(-c2ccccc2)cc1)c1ncc(C(=O)NO)s1` [Compound I-161, 2-{(1S)-1-[(biphenyl-4-ylcarbonyl)amino]ethyl}-N-hydroxy-1,3-thiazole-5-carboxamide] had a pIC50 above 7.00. `C[C@@H](NC(=O)C1(C)CCCCC1)c1ncc(C(=O)NO)s1` [Compound I-162, N-hydroxy-2-((1R)-1-{[(1-methylcyclohexyl)carbonyl]amino}ethyl)-1,3-thiazole-5-carboxamide] had a negative logarithm of the IC50 (pIC50) below 6.30. Then `Cc1nc(-c2ccccn2)sc1C(=O)N[C@H](C)c1cc(C(=O)NO)on1` [Compound I-163, N-hydroxy-3-((1R)-1-{[(4-methyl-2-pyridin-2-yl-1,3-thiazol-5-yl)carbonyl]amino}ethyl)isoxazole-5-carboxamide], with below 6.30; and `COc1ccc(C(=O)N[C@H](C)c2cc(C(=O)NO)on2)cc1` [Compound I-164, N-hydroxy-3-{(1R)-1-[(4-methoxybenzoyl)amino]ethyl}isoxazole-5-carboxamide], with below 6.30. `C[C@@H](NC(=O)c1cc2ccccc2o1)c1ncc(C(=O)NO)s1` [Compound I-165, 2-{(1R)-1-[(1-benzofuran-2-ylcarbonyl)amino]ethyl}-N-hydroxy-1,3-thiazole-5-carboxamide] had a pIC50 above 7.00. Then `C[C@@H](NC(=O)C(C)(C)C)c1ncc(C(=O)NO)s1` [Compound I-166, 2-{(1R)-1-[(2,2-dimethylpropanoyl)amino]ethyl}-N-hydroxy-1,3-thiazole-5-carboxamide], with below 6.30. The value for `Cc1nc(-c2ccccn2)sc1C(=O)N[C@H](C)c1ncc(C(=O)NO)s1` [Compound I-167, N-((1R)-1-{5-[(hydroxyamino)carbonyl]-1,3-thiazol-2-yl}ethyl)-4-methyl-2-pyridin-2-yl-1,3-thiazole-5-carboxamide] was above 7.00. Then `Cc1nc(-c2ccccn2)sc1C(=O)N[C@@H](C)c1ncc(C(=O)NO)s1` [Compound I-168, N-((1S)-1-{5-[(hydroxyamino)carbonyl]-1,3-thiazol-2-yl}ethyl)-4-methyl-2-pyridin-2-yl-1,3-thiazole-5-carboxamide], with above 7.00; and `COc1ccc(C(=O)N[C@H](C)c2ncc(C(=O)NO)s2)cc1` [Compound I-169, N-hydroxy-2-{(1R)-1-[(4-methoxybenzoyl)amino]ethyl}-1,3-thiazole-5-carboxamide], with 6.30 to 7.00. For the molecule `C[C@@H](NC(=O)C12CC3CC(CC(C3)C1)C2)c1cc(C(=O)NO)on1` [Compound I-170, 3-{(1R)-1-[(1-adamantylcarbonyl)amino]ethyl}-N-hydroxyisoxazole-5-carboxamide], the negative-log IC50 (pIC50) is below 6.30. The value for `C[C@H](NC(=O)C1(C)CCCCC1)c1ncc(C(=O)NO)s1` [Compound I-171, N-hydroxy-2-((1S)-1-{[(1-methylcyclohexyl)carbonyl]amino}ethyl)-1,3-thiazole-5-carboxamide] was below 6.30; that for `C[C@@H](NC(=O)C12CC3CC(CC(C3)C1)C2)c1ncc(C(=O)NO)s1` [Compound I-172, 2-((1R)-1-{[1-adamantylcarbonyl]amino}ethyl)-N-hydroxy-1,3-thiazole-5-carboxamide] was below 6.30. Then `C[C@H](NC(=O)c1nc2ccccc2n1C)c1ncc(C(=O)NO)s1` [Compound I-173, N-((1S)-1-{5-[(hydroxyamino)carbonyl]-1,3-thiazol-2-yl}ethyl)-1-methyl-1H-benzimidazole-2-carboxamide], with above 7.00; and `C[C@@H](NC(=O)c1cccn1C)c1ncc(C(=O)NO)s1` [Compound I-174, N-hydroxy-2-((1R)-1-{[(1-methyl-1H-pyrrol-2-yl)carbonyl]amino}ethyl)-1,3-thiazole-5-carboxamide], with 6.30 to 7.00; and `COc1ccc(C(=O)N[C@@H](C)c2ncc(C(=O)NO)s2)cc1` [Compound I-175, N-hydroxy-2-{(1S)-1-[(4-methoxybenzoyl)amino]ethyl}-1,3-thiazole-5-carboxamide], with 6.30 to 7.00.

For the origin of these results see patent publication US8546588B2, “Substituted hydroxamic acids and uses thereof” (Millennium Pharmaceuticals, Inc., priority 2010, dated 2013).
